One assay concerns the target T1, hVAChT A321F (Homo sapiens, UniProt Q16572, A321F).
T1 sequence (Q16572 1-532 A321F): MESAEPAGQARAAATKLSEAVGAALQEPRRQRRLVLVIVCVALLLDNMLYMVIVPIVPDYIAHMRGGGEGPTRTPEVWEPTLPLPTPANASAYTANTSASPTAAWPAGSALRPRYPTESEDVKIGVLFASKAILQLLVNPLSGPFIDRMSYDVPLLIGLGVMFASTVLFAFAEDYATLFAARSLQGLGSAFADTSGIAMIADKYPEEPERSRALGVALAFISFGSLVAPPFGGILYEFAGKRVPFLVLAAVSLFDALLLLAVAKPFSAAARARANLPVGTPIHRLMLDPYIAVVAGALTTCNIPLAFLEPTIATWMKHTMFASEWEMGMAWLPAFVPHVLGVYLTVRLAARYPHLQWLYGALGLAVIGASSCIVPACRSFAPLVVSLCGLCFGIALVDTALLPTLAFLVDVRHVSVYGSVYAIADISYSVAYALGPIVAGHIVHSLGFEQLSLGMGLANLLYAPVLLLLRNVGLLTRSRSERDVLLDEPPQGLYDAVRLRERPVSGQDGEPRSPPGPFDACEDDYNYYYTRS
As to the kind of experiment: [3H]vesamicol saturation binding. Conditions: pH 7.4.

In assay [1] the target is T2, hVAChT A330V (Homo sapiens, UniProt Q16572, A330V).
T2 sequence (Q16572 1-532 A330V): T1 sequence (Q16572 1-532 A321F) with F321A, A330V
Kind of assay: [3H]vesamicol saturation binding. Conditions: pH 7.4.

Another assay has as its target T3, hVAChT F392A (Homo sapiens, UniProt Q16572, F392A).
T3 sequence (Q16572 1-532 F392A): T1 sequence (Q16572 1-532 A321F) with F321A, F392A
As to the kind of experiment: [3H]vesamicol saturation binding. Conditions: pH 7.4.

Another assay addresses T4, hVAChT W325F (Homo sapiens, UniProt Q16572, W325F).
T4 sequence (Q16572 1-532 W325F): T1 sequence (Q16572 1-532 A321F) with F321A, W325F
Kind of assay: [3H]ACh transport. Format: biochemical.

The target in assay [2] is T2, hVAChT A330V. Kind of assay: ACh equilibrium binding by competition against [3H]vesamicol.
For a further assay, the target named is T5, hVAChT C388A (Homo sapiens, UniProt Q16572, C388A).
T5 sequence (Q16572 1-532 C388A): T1 sequence (Q16572 1-532 A321F) with F321A, C388A
The assay is described as above.

The structures appear in SMILES notation. Substitutions are numbered along the chain they refer to.

A word on the Km: it is the concentration of substrate that gives half-maximal velocity. The Kd is the free concentration of one partner at which half of the binding sites on the other are occupied at equilibrium, for simple one-to-one binding. Lower therefore signals tighter binding.

Take `O[C@@H]1CCCC[C@H]1N1CCC(c2ccccc2)CC1` (racemic) [vesamicol, ( )-trans-2-(4-phenylpiperidino)cyclohexanol]: the “Bmax, maximal specific [3H]vesamicol binding (VAChT expression level)” value at hVAChT A321F is 21 ± 1 pmol/mg; on hVAChT A330V [1], 21 ± 0 pmol/mg; at hVAChT F392A, 93 ± 5 pmol/mg.

For `CC(=O)OCC[N+](C)(C)C` [ACh, acetylcholine], the “Vmax/Bmax, ACh transport normalized to Bmax” value on hVAChT W325F (pH 7.4) was 5.0 ± 0.5 min⁻¹. Besides, on hVAChT W325F (read-out: KM, Michaelis-Menten constant for ACh transport, pH 7.4), the Km came to 1000 ± 300 µM. Besides, the Kd on hVAChT A330V [2] stood at 12 ± 5 mM; on hVAChT C388A, 17 ± 4 mM. Besides, the “decrease in the fraction of high-affinity binding by ACh” value at hVAChT A330V [2] (A330V hVAChT vs wild-type) was 2 fold. Also, the “FHA, fraction of the ACh sites that have high affinity” value on hVAChT A330V [2] (A330V hVAChT, pH 7.4) turned out to be 0.44 ± 0.11; on hVAChT C388A (C388A hVAChT, pH 7.4), 0.88 ± 0.08.

(Values after paper PMC2962730 (Journal of neurochemistry, 2010).)
